{
  "source": "patent US11559510B2",
  "about": "“Isoflavonoid composition with improved pharmacokinetics” (NOXOPHARM LIMITED, priority 2016, dated 2023)",
  "key": {"[1]": {"test": "Extrapolation of rat rectal plasma levels to humans on a body surface area basis", "conditions": "extrapolated from rat rectal data", "description": "In this study, idronoxil was given to rats at a dose of 10 mg/kg body weight, yielding a plasma concentration of about 35 to 40 ng/mL up to 8 hours from a single rectal administration. This dosage equates (on a body surface area basis) to a dose in humans of about 2 mg/kg BW. Thus, a blood level range of 20-400 ng/mL could be achieved in humans with a dosage range of 1-20 mg/kg BW, and the preferred range of 80-160 ng/mL with a dosage range of 4-8 mg/kg BW."}, "cancer cells": {"test_system": "cancer cells", "conditions": "cited from earlier work"}},
  "data": [
    {"smiles": "Oc1ccc(C2=Cc3ccc(O)cc3OC2)cc1", "note": "[Idronoxil, 2H-1-Benzopyran-7-0,1,3-(4-hydroxyphenyl)]", "values": [
      {"measurement": "blood level range that could be achieved in humans", "setting": "[1]; dosage range of 1-20 mg/kg BW", "value": "20 to 400", "unit": "ng/mL"},
      {"measurement": "blood level range that could be achieved in humans", "setting": "[1]; dosage range of 4-8 mg/kg BW", "value": "80 to 160", "unit": "ng/mL"},
      {"measurement": "concentration where it kills about 10% of the cancer cells (sensitising use)", "setting": "cancer cells; cancer cells in cell culture", "value": "50 to 300", "unit": "ng/mL"},
      {"measurement": "concentration that kills 50% of cancer cells in cell culture (IC50)", "setting": "cancer cells; depending largely on the tumour type", "value": "0.2 to 1.2", "unit": "µg/mL"},
      {"measurement": "direct cytotoxic or sensitising effect when drug added in a pulsatile manner", "setting": "cancer cells; left in cancer cell culture for 2-3 hours and then removed", "value": "largely ineffective"}
    ]}
  ]
}
